Laboratory results reported in article PMC7906907, “Targeting STAT3 by a small molecule suppresses pancreatic cancer progression” (Oncogene, 2021).

Key:
Format in all cases: cell-based
[1] = test system: STAT3 Tyr705 phosphorylation; experiment: Western blot of STAT3 activation in pancreatic cancer cells
Protocol: (§1) Fig. 2 N4 inhibits STAT3 activation in pancreatic cancer cells. A PANC-1, CAPAN-2, and BXPC-3 cells were treated with the indicated concentrations of N4 for 24 h. Then, p-STAT3 (Y705), p-STAT3 (S727), and STAT3 were detected by western blot assays with glyceraldehyde 3-phosphate dehydrogenase (GAPDH) used as the loading control. B Pancreatic cancer cells were starved in a medium lacking fetal bovine serum (FBS; basic medium) for 24 h, and then pretreated with N4 in basic medium for 24 h. Then, stimulated with IL-6 (20 ng/mL) for 30 min and lysed for western blot analysis using the indicated antibodies. C Expression levels of STAT3 downstream genes were detected by western blot following treatment of PANC-1 and CAPAN-2 cells with N4. D PANC-1 cells were seeded and allowed to attach, and then pretreated with 2 μM of N4 in FBS-free medium for 24 h. The cells were stimulated for 30 min using IL-6 (20 ng/mL). The STAT3 antibody (green) and 4, 6-diamidino-2-phenylindole (DAPI) (blue) was used for staining and STAT3 and the nucleus, respectively. The samples were photographed and analyzed. The scale bar represents 20 μm. E After 24 h treatment with 2 μM N4, PANC-1 cells were stimulated with IL-6 (20 ng/mL) for 30 min, and the cytoplasmic and nuclear extractions were analyzed by western blot. p-STAT3 (Y705) was used to detect STAT3, and GAPDH and H3 were used as the cytoplasm and nucleus internal control, respectively.
Western blotting was performed as previously described. Briefly, cells were treated with indicated compounds and then lysed by boiling. […]

[2] = test system: STAT3 nuclear translocation; experiment: Immunofluorescence of STAT3 nuclear translocation; settings: PANC-1 cells, 2 μM for 24 h, then IL-6
Protocol: as §1, with “The STAT3 antibody (green) and 4, 6-diamidino-2-phenylindole (DAPI) (blue) was used for staining and STAT3 and the nucleus, respectively.” left out, “The scale bar represents 20 μm.” left out
Immunofluorescence staining was performed as previously described. […] Images were recorded by confocal microscopy (Leica).

[3] = target: T1, STAT3 dimerization (Homo sapiens, UniProt P40763); experiment: STAT3 dimerization experiment (immunoprecipitation); settings: PANC-1 cells, 2 μM, with or without IL-6 stimulation
T1 construct: endogenous in cells; host or cells: PANC-1
From the text: (§2) Fig. 3 N4 interacts with the STAT3-SH2 domain and interferes with the STAT3-EGFR and STAT3-NF-κB interactions. […] C–E The binding between N4 and STAT3 was examined in (C) SPR and (D) MST experiments. His-STAT3^127-722 protein was purified and used to examine the affinity between STAT3 and N4. (E) The binding between N4 and STAT3^SH2 was confirmed in MST assays. STAT3-SH2 protein was purified and labeled. N4 was serially diluted and mixed with equal volumes of labeled STAT3^SH2 protein. The MST signal was measured, and the data were analyzed by MO analysis software. F, G The FLAG-tag and HA-tag STAT3 expression plasmid was transfected into 293 T cells, followed by the addition of the indicated concentrations of N4. After 24 h, cells were lysed, and immunoprecipitation experiments were performed as described in Materials and Methods. H N4 represses STAT3 dimerization in pancreatic cancer cells. I After a 24 h treatment with 2 μM N4, pancreatic cancer cells were stimulated with IL-6 for 30 min. Cell lysates were immunoprecipitated with STAT3 overnight. The precipitates were washed, suspended in non-reducing sample buffer, and boiled for 10 min. The indicated antibodies were used for western blot assays. […]
(§3) Co-IP was performed as previously described. […] After overnight incubation, the precipitates were washed and analyzed using western blotting.

[4] = target: T2, STAT3–EGFR interaction (Homo sapiens, UniProt P40763); experiment: Co-immunoprecipitation, STAT3–EGFR interaction; settings: PANC-1 cells, 2 μM, 24 h
T2 construct: endogenous in cells; host or cells: PANC-1
From the text: as §2, §3

[5] = target: T3, STAT3-NF-κB complex (Homo sapiens, UniProt P40763); experiment: Co-immunoprecipitation, STAT3-NF-κB interaction; settings: PANC-1 cells, 2 μM, 24 h
T3 construct: endogenous in cells; host or cells: PANC-1
From the text: as §2, §3

[6] = test system: Pancreatic cancer cells; experiment: Trans-well migration
Protocol: independent assays; *P < 0.05, **P < 0.01, ***P < 0.001, ****p < 0.0001 by one-way ANOVA followed by multiple comparisons. (C) Pancreatic cancer cells were seeded in the top chamber of Trans-well inserts and treated with N4 the following day. The lower chamber was fixed, stained, and photographed. Experiments were carried out in triplicate with identical results obtained. Data shown as mean ± SD; **P < 0.01, ****p < 0.0001 by Student’s t-tests. Scale bar, 100 μm.

[7] = PANC-1, CAPAN-2, BXPC-3 cells, 24 h

T3 sequence (P40763 2-770 limits assumed, one chain of several): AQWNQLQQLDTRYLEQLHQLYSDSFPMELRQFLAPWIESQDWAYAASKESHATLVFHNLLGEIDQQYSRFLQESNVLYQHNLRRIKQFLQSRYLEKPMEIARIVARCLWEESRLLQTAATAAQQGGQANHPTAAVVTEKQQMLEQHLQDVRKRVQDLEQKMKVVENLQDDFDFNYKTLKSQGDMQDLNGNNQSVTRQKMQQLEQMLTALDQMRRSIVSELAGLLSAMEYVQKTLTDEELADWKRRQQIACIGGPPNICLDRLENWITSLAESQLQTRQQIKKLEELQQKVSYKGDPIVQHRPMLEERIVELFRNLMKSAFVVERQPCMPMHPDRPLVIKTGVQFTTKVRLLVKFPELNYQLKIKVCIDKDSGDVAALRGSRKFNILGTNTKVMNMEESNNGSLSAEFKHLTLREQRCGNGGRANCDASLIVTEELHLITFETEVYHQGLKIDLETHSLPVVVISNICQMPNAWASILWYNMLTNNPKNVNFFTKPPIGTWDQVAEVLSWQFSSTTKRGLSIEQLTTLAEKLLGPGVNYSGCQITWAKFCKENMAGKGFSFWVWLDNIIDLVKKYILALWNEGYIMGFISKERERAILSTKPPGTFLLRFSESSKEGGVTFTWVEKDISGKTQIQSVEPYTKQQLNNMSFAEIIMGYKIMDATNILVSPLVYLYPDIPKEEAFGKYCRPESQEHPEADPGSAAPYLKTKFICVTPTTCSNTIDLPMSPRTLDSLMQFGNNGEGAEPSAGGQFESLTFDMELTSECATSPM
T2 sequence (P40763 2-770 limits assumed): as the sequence (P40763 2-770 limits assumed, one chain of several) above
T1 sequence (P40763 2-770 limits assumed): as the sequence (P40763 2-770 limits assumed, one chain of several) above

COc1cc2c(cc1C(=O)Nc1cccc3cccnc13)CCC1C(C)(C)C(=O)C(C#N)=C[C@]21C (some centres unmarked) [N4]
STAT3 Tyr705 phosphorylation [1, 7]: selectively blocked
Ser-727 phosphorylation and STAT3 protein expression [1, 7]: no obvious inhibition
SHP2 (PTPase), p-STAT1, p-STAT5, p-extracellular signal-regulated kinase, and p-AKT levels ([1]; western blots): no obvious influence
STAT3 nuclear translocation [2]: substantially impaired
STAT3 dimerization [3]: efficiently decreased
STAT3–EGFR interaction [4]: inhibited
interaction between STAT3 and NF-κB [5]: blocked
pancreatic cancer migration [6]: efficiently blocked
